Columns and labels:
[1] = tested on: CAP gene; test: CAP mRNA expression by real-time PCR in human periodontal ligament cells; assay type: cell-based; conditions: average of three experiments
Procedure: (§1) Specifically, all experiments were performed with the consent of the patient after obtaining approval from the Hospital's Institutional Review Board, a periodontal ligament tissue attached to the root of a wisdom tooth was isolated and cut into double-sided pieces, placed in a 60 mm dish, and covered with a cover slip, and then cultured in Dulbecco's degenerated Eagle's Medium.
(§2) Total RNA from human periodontal ligament cells was isolated using a TRIzol reagent. cDNA was synthesized using 2 μg of total RNA, 1 μl of reverse transcriptase, and 0.5 μg of oligo (dT). cDNA of synthesized human periodontal ligament cells was used for a real-time polymerase chain reaction using primers shown in Table 2 below. A real-time polymerase chain reaction was performed in ABI PRISM 7500 sequence detection system (Applied Biosystems) using SYBR GREEN PCR Master Mix (Takara, Japan). The real-time polymerase chain reaction was performed at 94° C., 1 min; 95° C., 15 sec-60° C., 34 sec was performed under the condition of repeating 40 cycles. Results were analyzed using a comparative cycle threshold (CT) method.

[2] = tested on: periostin gene; test: Periostin mRNA expression by real-time PCR in human periodontal ligament cells; assay type: cell-based; conditions: average of three experiments
Procedure: as §1, §2

[3] = tested on: BSP gene; test: BSP mRNA expression by real-time PCR in human periodontal ligament cells; assay type: cell-based; conditions: average of three experiments
Procedure: as §1, §2

[4] = tested on: three-wall periodontal defect; test: Periodontium regeneration in periodontium damage animal model, histological evaluation; assay type: in vivo; conditions: beagle dog, collagen sponge containing 50 μg peptide, 3 months
Procedure: Four beagle dogs (12-16 kg; […]) were anesthetized by inhalation of Geloran, intravenously injected with Zoletil (5 mg/kg) and Xylazine (0.2-0.5 mg/kg), and then treated with Lidocaine (Lidocaine 2% with 1:80,000 epinephrine). The 4th premolar tooth and the 2nd molar tooth were extracted from the mandible of the beagle dog, and then the dog waited for healing for 3 months. After 3 months of healing, three-wall periodontal defect was induced on distal and mesial surfaces of a 1st molar tooth. Then, a periodontal damage of 4×4×4 mm was formed with the buccal and distal bones remaining around the tooth root, the root alveolar bone is securely removed, tooth root planing was performed using a curette, and then an incisor groove was formed using a ½ round bur. Next, an experimental group was transplanted with a collagen sponge (a peptide solution obtained by dissolving a peptide in physiological saline at a concentration of 1 μg/μl was prepared, 50 μl of a peptide solution was added to the EP tube, and then was soaked for 5 minutes to prepare the collagen sponge) including a 50 μl of peptide (SEQ ID NO: 16 of group 2) prepared in Example 1 at a defect region, After the defect, only a negative control (NC) without any treatment and a collagen sponge (prepared by soaking a collagen sponge in 50 μl of physiological saline for 5 minutes) was placed on the inner bone wall of a bone defect and a transplanted negative control (NC+Plug) was sacrificed 3 months later, and histological evaluation was performed. After 3 months, a beagle dog was sacrificed by administering an excessive amount (90-120 mg/kg) of pentobarbital. A tooth of the beagle dog was extracted, fixed with 10% formalin, and then calcium was removed by adding 5% formic acid, molded, and embedded in paraffin, to obtain a tissue section with a thickness of 5 μm. The obtained tissue section was stained with hematoxylin and eosin or collagen stained (Masson's Trichrome Staining) to confirm periodontal ligament regeneration and then analyzed using by an optical microscope equipped with a digital camera (LEICA ICC50 camera, Germany). After extraction of a 4th premolar tooth and a 2nd molar tooth from the mandibles of 4 beagle dogs, they waited for 3 months to heal, and After 3 months of healing, the 3-mural periodontal defect was induced in distal and mesial surfaces of a 1st molar tooth. Then, periodontium damage of 4×4×4 mm was formed with the buccal and distal bones remaining around the tooth root, the root alveolar bone is securely removed, tooth root planing was performed using a curette, and then an incisor groove was formed. Next, the experimental group transplanted a collagen sponge containing 50 μg of the peptide (SEQ ID NO: 16) of Example 1 to the defect region, and after the defect, a negative control (NC) without any treatment and control (NC+Plug) transplanted by placing only a collagen sponge on the inner bone wall of the bone defect was sacrificed 3 months later for histological evaluation.

[5] = Masson's trichrome stain, FIG. 6

14 (KYKQKRKSYK) [compound 14]
CAP gene expression, relative mRNA expression level compared to the control, Average [1]: 2.836
PERIOSTIN gene expression, relative mRNA expression level compared to the control, Average [2]: 2.836
BSP gene expression, relative mRNA expression level compared to the control, Average [3]: 2.836

7 (KYKQKKRNYK) [compound 7]
CAP gene expression, relative mRNA expression level compared to the control, Average [1]: 2.451
PERIOSTIN gene expression, relative mRNA expression level compared to the control, Average [2]: 2.329
BSP gene expression, relative mRNA expression level compared to the control, Average [3]: 2.215

16 (KYKQKRRSYK) [compound 16]
CAP gene expression, relative mRNA expression level compared to the control, Average [1]: 2.467
PERIOSTIN gene expression, relative mRNA expression level compared to the control, Average [2]: 2.403
BSP gene expression, relative mRNA expression level compared to the control, Average [3]: 2.606

3 (KYKQRRKNYK) [compound 3]
CAP gene expression, relative mRNA expression level compared to the control, Average [1]: 2.572
PERIOSTIN gene expression, relative mRNA expression level compared to the control, Average [2]: 2.572
BSP gene expression, relative mRNA expression level compared to the control, Average [3]: 2.572

12 (KYKQRRRSYK) [compound 12]
CAP gene expression, relative mRNA expression level compared to the control, Average [1]: 2.211
PERIOSTIN gene expression, relative mRNA expression level compared to the control, Average [2]: 2.211
BSP gene expression, relative mRNA expression level compared to the control, Average [3]: 2.211

15 (KYKQKKRSYK) [compound 15]
CAP gene expression, relative mRNA expression level compared to the control, Average [1]: 2.620
PERIOSTIN gene expression, relative mRNA expression level compared to the control, Average [2]: 2.620
BSP gene expression, relative mRNA expression level compared to the control, Average [3]: 2.620

10 (KYKQRKRSYK) [compound 10]
CAP gene expression, relative mRNA expression level compared to the control, Average [1]: 2.811
PERIOSTIN gene expression, relative mRNA expression level compared to the control, Average [2]: 2.811
BSP gene expression, relative mRNA expression level compared to the control, Average [3]: 2.811

9 (KYKQRKKSYK) [compound 9]
CAP gene expression, relative mRNA expression level compared to the control, Average [1]: 2.211
PERIOSTIN gene expression, relative mRNA expression level compared to the control, Average [2]: 2.211
BSP gene expression, relative mRNA expression level compared to the control, Average [3]: 2.211

KYKQKRRSYK [SEQ ID NO: 16, Group 2 peptide, 8th amino acid is serine (S)]
incorporation of new periodontal ligament fiber bundle into alveolar bone and cementum [4, 5]: A new periodontal ligament fiber bundle was vertically incorporated in the newly formed alveolar bone and cementum
new cementum-like tissue formation [4, 5]: new cementum-like tissue was observed along a tooth root surface
new periodontal ligament-like tissue formation [4, 5]: new periodontal ligament-like tissue formation was also observed
incorporation of new periodontal ligament into alveolar bone and cementum ([4]; hematoxylin/eosin, FIG. 5): New periodontal ligament was incorporated in the newly formed alveolar bone and cementum
new cementum-like tissue formation ([4]; hematoxylin/eosin, FIG. 5): new cementum-like tissue was observed along a tooth root surface
new periodontal ligament-like tissue formation ([4]; hematoxylin/eosin, FIG. 5): new periodontal ligament-like tissue formation was also observed

8 (KYKQKRRNYK) [compound 8]
CAP gene expression, relative mRNA expression level compared to the control, Average [1]: 2.021
PERIOSTIN gene expression, relative mRNA expression level compared to the control, Average [2]: 2.021
BSP gene expression, relative mRNA expression level compared to the control, Average [3]: 2.021

1 (KYKQRKKNYK) [compound 1]
CAP gene expression, relative mRNA expression level compared to the control, Average [1]: 2.092
PERIOSTIN gene expression, relative mRNA expression level compared to the control, Average [2]: 2.092
BSP gene expression, relative mRNA expression level compared to the control, Average [3]: 2.092

2 (KYKQRKRNYK) [compound 2]
CAP gene expression, relative mRNA expression level compared to the control, Average [1]: 2.361
PERIOSTIN gene expression, relative mRNA expression level compared to the control, Average [2]: 2.361
BSP gene expression, relative mRNA expression level compared to the control, Average [3]: 2.361

4 (KYKQRRRNYK) [compound 4]
CAP gene expression, relative mRNA expression level compared to the control, Average [1]: 2.702
PERIOSTIN gene expression, relative mRNA expression level compared to the control, Average [2]: 2.702
BSP gene expression, relative mRNA expression level compared to the control, Average [3]: 2.702

6 (KYKQKRKNYK) [compound 6]
CAP gene expression, relative mRNA expression level compared to the control, Average [1]: 2.705
PERIOSTIN gene expression, relative mRNA expression level compared to the control, Average [2]: 2.705
BSP gene expression, relative mRNA expression level compared to the control, Average [3]: 2.705

13 (KYKQKKKSYK) [compound 13]
CAP gene expression, relative mRNA expression level compared to the control, Average [1]: 2.525
PERIOSTIN gene expression, relative mRNA expression level compared to the control, Average [2]: 2.525
BSP gene expression, relative mRNA expression level compared to the control, Average [3]: 2.525

5 (KYKQKKKNYK) [compound 5]
CAP gene expression, relative mRNA expression level compared to the control, Average [1]: 2.67
PERIOSTIN gene expression, relative mRNA expression level compared to the control, Average [2]: 2.67
BSP gene expression, relative mRNA expression level compared to the control, Average [3]: 2.67

11 (KYKQRRKSYK) [compound 11]
CAP gene expression, relative mRNA expression level compared to the control, Average [1]: 2.362
PERIOSTIN gene expression, relative mRNA expression level compared to the control, Average [2]: 2.362
BSP gene expression, relative mRNA expression level compared to the control, Average [3]: 2.362
